Earlier results in patent US4729992A, “Cephalosporin esters, their production and use” (Tatsuo Chemical Ind., Ltd., priority 1984, dated 1988).

Experiments:
Details in all cases: Antimicrobial Agent and Chemotherapy 14, 557-568 (1978)
Staphylococcus aureus = test system: Staphylococcus aureus
Escherichia coli = test system: Escherichia coli
Proteus morganii = test system: Proteus morganii
Proteus vulgaris = test system: Proteus vulgaris
Proteus mirabilis = test system: Proteus mirabilis
Klebsiella pneumoniae = test system: Klebsiella pneumoniae

Measured: antibacterial activity

CN(C)CCn1nnnc1SCC1=C(C(=O)O)N2C(=O)[C@@H](NC(=O)Cc3csc(N)n3)[C@H]2SC1 [compound [II], 7β-[2-(2-aminothiazol-4-yl)acetamido]3-[[[1-(2-dimethylaminoethyl)-1H-tetrazol-5-yl]thio]methyl]ceph-3-em-4-carboxylic acid]
potent antibacterial activity: all assays above
